Measurements published in PMC11358582, “Discovery of a potential bladder cancer inhibitor CHNQD-01281 by regulating EGFR and promoting infiltration of cytotoxic T cells” (Marine Life Science & Technology, 2024).
Values after ≈ are worked out from the molar mass of the structure shown.

Tests used:
[1] = tested on: MB49 tumor; experiment: MB49 homologous (syngeneic) tumor model; assay type: in vivo, C57BL/6 mice
Procedure: Specific pathogen free (SPF)-grade C57BL/6 mice and BALB/c-nu mice were purchased from Jinan Pengyue Experimental Animal Center (license No. SCXK 20190003). The protocol was approved by the Research Review Committee of the Ocean University of China. All mice were housed in 12-h light and 12-h dark conditions in which the humidity was 50% ± 10% and the temperature was 22 ± 2 °C. All mice had free access to food and water. The human bladder cancer cell line T24 was injected subcutaneously into BALB/c-nu mice to construct a xenograft tumor model. The cell suspension of mouse bladder cancer cell line MB49 was injected into C57BL/6 mice subcutaneously to construct a syngeneic tumor model.
Fixed tissues were embedded in paraffin and then sectioned. The specimens were incubated with antibodies against Ki67, CD3, CD4, CD8 (Servicebio, China) and EGFR (ABclonal, China) at 4 °C overnight. The next day, the slides were washed with 1 × PBST three times for 5 min each and stained with the secondary antibodies and Hoechst 33342 dye (Beyotime, China) for 60 min for IF. For IHC staining, the sections were developed with a rabbit/mouse HRP kits (DAB) (Beyotime, China) according to the manufacturer’s instructions.
In addition, apoptosis, necrosis, and increased eosinophil cytoplasm were observed and there was a large number of lymphocyte infiltration in the treatment group.

[2] = Solubility in selected aqueous solutions; assay type: physicochemical
Description: The problem of poor water solubility is one of the factors that seriously restricts the preclinical application of BFA. Therefore, from the perspective of pharmaceutics, it is of great application value to explore safe and effective methods to improve its solubility. Based on the previous screening of commonly used solvents, solubilizers and co-solvents for BFA and its derivatives, we explored the solubility of CHNQD-01281, which was compared and assessed in selected aqueous solutions (Table 1). Saline or PBS were commonly used solvents, but the solubility of BFA or CHNQD-01281 was less than 1 mg/mL when used alone. No significant improvement in solubility was observed after the addition of DMSO or PEG400. […] More importantly, the solution system of CHNQD-01281 with saline/DMSO/solutol HS-15 (85/5/10) can fully meet the needs of follow-up experiments in vivo, such as pharmacodynamics, pharmacokinetics and safety evaluation.

[3] = tested on: EGFR; experiment: Western blot of EGFR expression in T24 cells; assay type: cell-based, human; settings: T24, 0.16 µmol/L, versus control
Procedure: T24 and J82 cell lines were lysed in protein lysis buffer, which included phosphatase inhibitors and a cocktail of protease inhibitors. A BCA kit (SparkJade, China) was used to determine the total protein concentration. After protein denaturation, SDS-PAGE electrophoresis was performed and the protein transferred from the gel to a PVDF membrane (Millipore, USA). Then primary antibodies against cleaved caspases-3, cleaved PARP, AKT, phosphorylated AKT, ERK1/2, phosphorylated ERK1/2, EGFR, mTOR, phosphorylated mTOR and Tubulin (CST, USA) were diluted at 1:1000 at 4 °C overnight. The membranes were then washed and incubated with secondary antibodies dissolved in 5% nonfat milk. A chemiluminescence imaging system was used to detect the signals (Tanon, China).
EGFR is overexpressed in malignant urothelial cells, which is associated with the deterioration, invasiveness and metastasis of tumors. It is a potential therapeutic target for bladder carcinoma. Therefore, we examined the expression of EGFR and its downstream proteins after treating bladder cancer cells with CHNQD-01281 (Supplementary Fig. S11). […] Taken together, CHNQD-01281 inhibited the proliferation of bladder cancer cells and induced apoptosis through EGFR/PI3K/AKT and EGFR/ERK pathways to exert antitumor effects.

[4] = tested on: T24 cell line; experiment: Cell cycle analysis (Muse Cell Analyzer); assay type: cell-based, human
Procedure: (§1) T24 and J82 cell lines were seeded in 6-well plates (3 × 10^5 cells/well) and treated with different concentrations of CHNQD-01281 or DMSO. Cells were then harvested, washed with ice-cold PBS, and fixed in 70% cold ethanol overnight at − 20 °C. Fixed cells were then collected, washed, and stained with 200 μL of Muse™ cell cycle reagent for 30 min in the dark at room temperature. The cell cycle distribution was immediately analyzed by Muse Cell Analyzer (Millipore, Billerica, MA, USA).
(§2) The G1/S transition is a key checkpoint in the cell cycle that regulates DNA replication. As the cell cycle progresses, G1 phase arrest leads to apoptosis or repair mechanisms.

[5] = tested on: J82 cell line; experiment: Cell cycle analysis (Muse Cell Analyzer); assay type: cell-based, human
Procedure: as §1, §2

C[C@H]1CCC/C=C/[C@@H]2C[C@H](O)C[C@H]2[C@H](OC(=O)/C=C/c2cccnc2)/C=C/C(=O)O1 [CHNQD-01281, Brefeldin A 4-O-3-(pyridin-3-yl) acrylate]
mice with tumor disappearance ([1]; 10 mg/kg intratumoral, no recurrence within 30 days after cessation): 20%
life prolongation rate (ILS) ([1]; 10 mg/kg, intratumoral injection, QD): 68.16%
infiltration of CD3+, CD4+ and CD8+ T cells (immunofluorescence) ([1]; 10 mg/kg, intratumoral injection, QD, tumor tissue): significantly increased
solubility ([2]; Saline or PBS used alone): < 1000 µg/mL
solubility ([2]; aqueous with cosolvent or surfactant or cyclodextrin, No. 2: Saline/DMSO 95/5, pH 7.4, 25 °C): < 1000 µg/mL
solubility ([2]; aqueous with cosolvent or surfactant or cyclodextrin, No. 3: PBS/DMSO 95/5, pH 7.4, 25 °C): < 1000 µg/mL
solubility ([2]; aqueous with cosolvent or surfactant or cyclodextrin, No. 4: Saline/PEG400 95/5, pH 7.4, 25 °C): < 1000 µg/mL
solubility ([2]; aqueous with cosolvent or surfactant or cyclodextrin, No. 5: Saline/PEG400 80/20, pH 7.4, 25 °C): < 1000 µg/mL
solubility ([2]; aqueous with cosolvent or surfactant or cyclodextrin, No. 6: Saline/DMSO/solutol HS-15 85/5/10, pH 7.4, 25 °C): 12000 to 15000 µg/mL (≈ 29200 to 36500 µM)
solubility ([2]; aqueous with cosolvent or surfactant or cyclodextrin, No. 7: Saline/solutol HS-15 95/5, pH 7.4, 25 °C): < 1000 µg/mL
solubility ([2]; aqueous with cosolvent or surfactant or cyclodextrin, No. 8: Saline/solutol HS-15 90/10, pH 7.4, 25 °C): < 1000 µg/mL
solubility ([2]; saline or isotonic, No. 1: Saline (0.9% NaCl) 100, pH 7.4, 25 °C): < 1000 µg/mL
improvement of solubility versus BFA ([2]; saline with 5% DMSO and 10% solutol HS-15): approximately tenfold
maximum down-regulation of EGFR expression [3]: 77.61%
proportion of cells in S phase ([4]; T24, 0.04 µmol/L (control 20.5%)): 18.9%
G0/G1 cells ([4]; T24, 0.04 µmol/L (control 61.4%)): 65.0%
proportion of cells in S phase ([4]; T24, 0.08 µmol/L (control 20.5%)): 13.5%
G0/G1 cells ([4]; T24, 0.08 µmol/L (control 61.4%)): 75.2%
proportion of cells in S phase ([4]; T24, 0.16 µmol/L (control 20.5%)): 11.4%
G0/G1 cells ([4]; T24, 0.16 µmol/L (control 61.4%)): 80.6%
proportion of cells in S phase ([5]; J82, 0.04 µmol/L (control 27.5%)): 26.0%
G0/G1 cells ([5]; J82, 0.04 µmol/L (control 53.1%)): 60.3%
proportion of cells in S phase ([5]; J82, 0.08 µmol/L (control 27.5%)): 22.1%
G0/G1 cells ([5]; J82, 0.08 µmol/L (control 53.1%)): 66.3%
proportion of cells in S phase ([5]; J82, 0.16 µmol/L (control 27.5%)): 18.2%
G0/G1 cells ([5]; J82, 0.16 µmol/L (control 53.1%)): 73.6%
